Experiments:
[1] = test system: microflora from primary root carious lesions (PRCL); assay: Ozone effect on microflora from primary root caries ex-vivo; type: cell-based; details: for Mean ± SE of Total cfu (Log10): After 10 Seconds of Ozone Treatment
Source text: Primary root carious lesions (PRCL) are a major clinical problem. The aim of this study was to establish if ozone could achieve effective microbial killing in PRCL. An ozone producing generator (Purezone Ltd., Ipswich, U.K.) was used in this ex-vivo study assessing the use of ozone on PRCL. In this study, soft PRCL requiring restoration were used as these are the most severe type of lesion found in humans. 20 freshly extracted teeth with PRCL requiring restoration were used. After plaque removal using a hand held standard fine nylon fiber sterile toothbrush with sterile water as a lubricant to cleanse the surface, each tooth was then isolated using sterile cotton wool rolls and dried using a dry sterile cotton wool roll. […] Each sample was weighed and immediately placed in 1 ml of Fastidious Anaerobe Broth (FAB). To each 1 ml of FAB containing a biopsy o carious or ozone treated carious dentine, sterile glass beads were added. They were vortexed for 30 seconds to facilitate the extraction of any micro-organisms from the carious dentine and disperse any aggregates.
The procedure of Example 2 was repeated except that ozonized water was applied to the lesion for 20 seconds.

[2] = test system: Streptococcus sobrinus; TH 21; assay: Ozone on S. sobrinus on saliva coated glass beads; details: 10 seconds of ozone applied to saliva coated glass beads
Method: In study 2, 40 sterile saliva coated glass beads were put into bijoux bottles with 3 mls of Todd Hewitt broth for control and test groups. S. sobrinus and S. mutans were inoculated and incubated anaerobically overnight. Each glass bead was washed with 2 mls of PBS. Immediately, 10 seconds of ozone was applied to the glass beads in the test groups. Subsequently, each glass bead in the test and control groups was placed in 3 mls of Todd Hewitt broth with six more sterile glass beads and were vortexed for 30 seconds. After decimal dilutions, 100 ml aliquots were spread on blood agar plates supplemented with 5% (V/V) horse blood and placed in an anaerobic chamber at 37° C. for two days. The number of each colony type was counted and calculated.

SMILES: O=[O+][O-] [ozone]
- percentage of micro-organisms killed ([1]; 10 seconds of ozone, PRCL ex-vivo): more than 99%
- Mean ± SE of Total cfu (Log10) ([1]; soft PRCL from extracted teeth): 3.57±0.37 Log10
- Mean ± SE of Total cfu (Log10) ([1]; soft PRCL from extracted teeth, listed as Ozone): 3.57 ± 0.37 Log10
- Total cfu (log10), mean±SE ([1]; after 20 seconds of ozone treatment, soft PRCL from extracted teeth): 3.77±0.42 log10
- colony count (log10), Mean±SE [2]: 1.09±0.36 log10

Source: patent US20030133881A1, “Formulations for the remineralization of teeth” (priority 2001, published 2003)
